Source: publication PMC6979384, “Characterization of the plant homeodomain (PHD) reader family for their histone tail interactions” (Epigenetics & Chromatin, 2020)

Columns and labels:
Experiment in all cases: Histone peptide microarray
Assay type in all cases: binding, human
BPTF (PB) = settings: BPTF (PB); for Array Heatmap value (peptide array signal): sheet "Array Heatmap", each array performed twice, total n = 4
Method in brief: (§1)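 A peptide microarray holding 293 synthetic histone peptides with individual or combinatorial modifications was probed with each GST-PHD protein at 0.5 μM. Values represent mean intensity (±SD) from four replicates.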

PHF8 = settings: for Array Heatmap value (peptide array signal): PHF8, sheet "Array Heatmap", each array performed twice, total n = 4
Method in brief: as §1

ING3 = settings: for Array Heatmap value (peptide array signal): ING3, sheet "Array Heatmap", each array performed twice, total n = 4
Method in brief: as §1

PHRF1 (RP) = settings: PHRF1 (RP); for Array Heatmap value (peptide array signal): sheet "Array Heatmap", each array performed twice, total n = 4
Method in brief: as §1

KDM5A (1) = settings: KDM5A (1); for Array Heatmap value (peptide array signal): sheet "Array Heatmap", each array performed twice, total n = 4
Method in brief: as §1

PHF21A = settings: PHF21A; for Array Heatmap value (peptide array signal): sheet "Array Heatmap", each array performed twice, total n = 4
Method in brief: as §1

RAG2 = settings: for Array Heatmap value (peptide array signal): RAG2, sheet "Array Heatmap", each array performed twice, total n = 4
Method in brief: as §1

DIDO1 = settings: for Array Heatmap value (peptide array signal): DIDO1, sheet "Array Heatmap", each array performed twice, total n = 4
Method in brief: as §1

KDM4C (TTP) = settings: KDM4C (TTP); for Array Heatmap value (peptide array signal): sheet "Array Heatmap", each array performed twice, total n = 4
Method in brief: as §1

PHF23 = settings: for Array Heatmap value (peptide array signal): PHF23, sheet "Array Heatmap", each array performed twice, total n = 4
Method in brief: as §1

CHD5 (PCC) = settings: CHD5 (PCC); for Array Heatmap value (peptide array signal): sheet "Array Heatmap", each array performed twice, total n = 4
Method in brief: as §1

MLL5 = settings: for Array Heatmap value (peptide array signal): MLL5, sheet "Array Heatmap", each array performed twice, total n = 4
Method in brief: as §1

KDM5B (1) = settings: KDM5B (1); for Array Heatmap value (peptide array signal): sheet "Array Heatmap", each array performed twice, total n = 4
Method in brief: as §1

ING4 = settings: for Array Heatmap value (peptide array signal): ING4, sheet "Array Heatmap", each array performed twice, total n = 4
Method in brief: as §1

KDM7A = settings: KDM7A; for Array Heatmap value (peptide array signal): sheet "Array Heatmap", each array performed twice, total n = 4
Method in brief: as §1

KDM5B (3) = settings: KDM5B (3); for Array Heatmap value (peptide array signal): sheet "Array Heatmap", each array performed twice, total n = 4
Method in brief: as §1

CHD5 (PPCC) = settings: CHD5 (PPCC); for Array Heatmap value (peptide array signal): sheet "Array Heatmap", each array performed twice, total n = 4
Method in brief: as §1

MORC3 (CW) = settings: MORC3 (CW); for Array Heatmap value (peptide array signal): sheet "Array Heatmap", each array performed twice, total n = 4
Method in brief: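 GST-PHD reader, 0.5 μM, probed on 293-peptide histone array (single/combinatorial PTMs); optimized array protocol; signal = mean ± SD, n = 4.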

BAZ2B = settings: BAZ2B; for Array Heatmap value (peptide array signal): sheet "Array Heatmap", each array performed twice, total n = 4
Method in brief: as §1

KDM5A (3) = settings: KDM5A (3); for Array Heatmap value (peptide array signal): sheet "Array Heatmap", each array performed twice, total n = 4
Method in brief: as §1

ING1 = settings: for Array Heatmap value (peptide array signal): ING1, sheet "Array Heatmap", each array performed twice, total n = 4
Method in brief: as §1

SP140L = settings: SP140L; for Array Heatmap value (peptide array signal): sheet "Array Heatmap", each array performed twice, total n = 4
Method in brief: as §1

ING5 = settings: for Array Heatmap value (peptide array signal): ING5, sheet "Array Heatmap", each array performed twice, total n = 4
Method in brief: as §1

TAF3 = settings: for Array Heatmap value (peptide array signal): TAF3, sheet "Array Heatmap", each array performed twice, total n = 4
Method in brief: as §1

PHF2 = settings: for Array Heatmap value (peptide array signal): PHF2, sheet "Array Heatmap", each array performed twice, total n = 4
Method in brief: as §1

CHD4 (PPCC) = settings: CHD4 (PPCC); for Array Heatmap value (peptide array signal): sheet "Array Heatmap", each array performed twice, total n = 4
Method in brief: as §1

ING2 = settings: for Array Heatmap value (peptide array signal): ING2, sheet "Array Heatmap", each array performed twice, total n = 4
Method in brief: as §1

DPF2 (PPC2W2) = settings: DPF2 (PPC2W2); for Array Heatmap value (peptide array signal): sheet "Array Heatmap", each array performed twice, total n = 4
Method in brief: as §1

AIRE (PP) = settings: AIRE (PP); for Array Heatmap value (peptide array signal): sheet "Array Heatmap", each array performed twice, total n = 4
Method in brief: as §1

TRIM66 (PB) = settings: TRIM66 (PB); for Array Heatmap value (peptide array signal): sheet "Array Heatmap", each array performed twice, total n = 4
Method in brief: as §1

PHF13 = settings: for Array Heatmap value (peptide array signal): PHF13, sheet "Array Heatmap", each array performed twice, total n = 4
Method in brief: as §1

[1] = GST-tagged, arrays performed twice, n of 4

H4K5ac + K8ac + K12me1 + K16ac: H4 1-23
Array Heatmap value (peptide array signal) (BPTF (PB)): 0.4205 | Array Heatmap value (peptide array signal) (PHF8): 0.3954 | Array Heatmap value (peptide array signal) (ING3): 0.5746 | Array Heatmap value (peptide array signal) (PHRF1 (RP)): 0.5035 | Array Heatmap value (peptide array signal) (KDM5A (1)): 0.525 | Array Heatmap value (peptide array signal) (PHF21A): 0.5148 | Array Heatmap value (peptide array signal) (RAG2): 0.2841 | Array Heatmap value (peptide array signal) (DIDO1): 0.7398 | Array Heatmap value (peptide array signal) (KDM4C (TTP)): 0.5546 | Array Heatmap value (peptide array signal) (PHF23): 0.5681 | Array Heatmap value (peptide array signal) (CHD5 (PCC)): 0.8246 | Array Heatmap value (peptide array signal) (MLL5): 0.5904 | Array Heatmap value (peptide array signal) (KDM5B (1)): 0.6517 | Array Heatmap value (peptide array signal) (ING4): 0.538 | Array Heatmap value (peptide array signal) (KDM7A): 0.3906 | Array Heatmap value (peptide array signal) (KDM5B (3)): 0.5615 | Array Heatmap value (peptide array signal) (CHD5 (PPCC)): 0.6457 | Array Heatmap value (peptide array signal) (MORC3 (CW)): 0.4079 | Array Heatmap value (peptide array signal) (BAZ2B): 0.5334 | Array Heatmap value (peptide array signal) (KDM5A (3)): 0.4814 | Array Heatmap value (peptide array signal) (ING1): 0.5999 | Array Heatmap value (peptide array signal) (SP140L): 0.4016 | Array Heatmap value (peptide array signal) (ING5): 0.4233 | Array Heatmap value (peptide array signal) (TAF3): 0.2985 | Array Heatmap value (peptide array signal) (PHF2): 0.5943 | Array Heatmap value (peptide array signal) (CHD4 (PPCC)): 0.628 | Array Heatmap value (peptide array signal) (ING2): 0.6062 | Array Heatmap value (peptide array signal) (DPF2 (PPC2W2)): 0.7404 | Array Heatmap value (peptide array signal) (AIRE (PP)): 0.4852 | Array Heatmap value (peptide array signal) (TRIM66 (PB)): 0.6523 | Array Heatmap value (peptide array signal) (PHF13): 0.7176

H4K5ac + K8ac + K16ac: H4 1-23
Array Heatmap value (peptide array signal) (BPTF (PB)): 0.3802 | Array Heatmap value (peptide array signal) (PHF8): 0.3765 | Array Heatmap value (peptide array signal) (ING3): 0.5105 | Array Heatmap value (peptide array signal) (PHRF1 (RP)): 0.4907 | Array Heatmap value (peptide array signal) (KDM5A (1)): 0.4528 | Array Heatmap value (peptide array signal) (PHF21A): 0.485 | Array Heatmap value (peptide array signal) (RAG2): 0.2519 | Array Heatmap value (peptide array signal) (DIDO1): 0.7386 | Array Heatmap value (peptide array signal) (KDM4C (TTP)): 0.487 | Array Heatmap value (peptide array signal) (PHF23): 0.5402 | Array Heatmap value (peptide array signal) (CHD5 (PCC)): 0.7848 | Array Heatmap value (peptide array signal) (MLL5): 0.5646 | Array Heatmap value (peptide array signal) (KDM5B (1)): 0.6453 | Array Heatmap value (peptide array signal) (ING4): 0.4699 | Array Heatmap value (peptide array signal) (KDM7A): 0.3432 | Array Heatmap value (peptide array signal) (KDM5B (3)): 0.4621 | Array Heatmap value (peptide array signal) (CHD5 (PPCC)): 0.5628 | Array Heatmap value (peptide array signal) (MORC3 (CW)): 0.3785 | Array Heatmap value (peptide array signal) (BAZ2B): 0.469 | Array Heatmap value (peptide array signal) (KDM5A (3)): 0.4685 | Array Heatmap value (peptide array signal) (ING1): 0.5586 | Array Heatmap value (peptide array signal) (SP140L): 0.3822 | Array Heatmap value (peptide array signal) (ING5): 0.3649 | Array Heatmap value (peptide array signal) (TAF3): 0.2628 | Array Heatmap value (peptide array signal) (PHF2): 0.5897 | Array Heatmap value (peptide array signal) (CHD4 (PPCC)): 0.6069 | Array Heatmap value (peptide array signal) (ING2): 0.5942 | Array Heatmap value (peptide array signal) (DPF2 (PPC2W2)): 0.7091 | Array Heatmap value (peptide array signal) (AIRE (PP)): 0.4269 | Array Heatmap value (peptide array signal) (TRIM66 (PB)): 0.6293 | Array Heatmap value (peptide array signal) (PHF13): 0.6186

H4K5ac + K8ac: H4 1-23
Array Heatmap value (peptide array binding signal) (BPTF (PB); [1]): 0.3517 | Array Heatmap value (peptide array binding signal) (PHF8; PHF8, GST-tagged, arrays performed twice, n of 4): 0.3992 | Array Heatmap value (peptide array binding signal) (ING3; ING3, GST-tagged, arrays performed twice, n of 4): 0.4856 | Array Heatmap value (peptide array binding signal) (PHRF1 (RP); [1]): 0.424 | Array Heatmap value (peptide array binding signal) (KDM5A (1); [1]): 0.4957 | Array Heatmap value (peptide array binding signal) (PHF21A; [1]): 0.4994 | Array Heatmap value (peptide array binding signal) (RAG2; RAG2, GST-tagged, arrays performed twice, n of 4): 0.2557 | Array Heatmap value (peptide array binding signal) (DIDO1; DIDO1, GST-tagged, arrays performed twice, n of 4): 0.6312 | Array Heatmap value (peptide array binding signal) (KDM4C (TTP); [1]): 0.5523 | Array Heatmap value (peptide array binding signal) (PHF23; PHF23, GST-tagged, arrays performed twice, n of 4): 0.5198 | Array Heatmap value (peptide array binding signal) (CHD5 (PCC); [1]): 0.8034 | Array Heatmap value (peptide array binding signal) (MLL5; MLL5, GST-tagged, arrays performed twice, n of 4): 0.528 | Array Heatmap value (peptide array binding signal) (KDM5B (1); [1]): 0.6318 | Array Heatmap value (peptide array binding signal) (ING4; ING4, GST-tagged, arrays performed twice, n of 4): 0.4756 | Array Heatmap value (peptide array binding signal) (KDM7A; [1]): 0.4235 | Array Heatmap value (peptide array binding signal) (KDM5B (3); [1]): 0.5165 | Array Heatmap value (peptide array binding signal) (CHD5 (PPCC); [1]): 0.5854 | Array Heatmap value (peptide array binding signal) (MORC3 (CW); [1]): 0.3673 | Array Heatmap value (peptide array binding signal) (BAZ2B; [1]): 0.4714 | Array Heatmap value (peptide array binding signal) (KDM5A (3); [1]): 0.4472 | Array Heatmap value (peptide array binding signal) (ING1; ING1, GST-tagged, arrays performed twice, n of 4): 0.5183 | Array Heatmap value (peptide array binding signal) (SP140L; [1]): 0.3819 | Array Heatmap value (peptide array binding signal) (ING5; ING5, GST-tagged, arrays performed twice, n of 4): 0.3695 | Array Heatmap value (peptide array binding signal) (TAF3; TAF3, GST-tagged, arrays performed twice, n of 4): 0.2841 | Array Heatmap value (peptide array binding signal) (PHF2; PHF2, GST-tagged, arrays performed twice, n of 4): 0.4759 | Array Heatmap value (peptide array binding signal) (CHD4 (PPCC); [1]): 0.551 | Array Heatmap value (peptide array binding signal) (ING2; ING2, GST-tagged, arrays performed twice, n of 4): 0.5873 | Array Heatmap value (peptide array binding signal) (DPF2 (PPC2W2); [1]): 0.6807 | Array Heatmap value (peptide array binding signal) (AIRE (PP); [1]): 0.5662 | Array Heatmap value (peptide array binding signal) (TRIM66 (PB); [1]): 0.5724 | Array Heatmap value (peptide array binding signal) (PHF13; PHF13, GST-tagged, arrays performed twice, n of 4): 0.6182
